Test results taken from patent publication US10894784B2, “Heteroarylbenzimidazole compounds” (BAYER PHARMA AKTIENGESELLSCHAFT, priority 2015, dated 2021).

target: TBK1 (Homo sapiens (Human), UniProt Q9UHD2); experiment: TBK1 low ATP kinase assay (in vitro assay 1); assay type: biochemical; conditions: in vitro assay 1, read-out: TBK1 low ATP kinase assay IC50
Sequence (Q9UHD2 whole entry): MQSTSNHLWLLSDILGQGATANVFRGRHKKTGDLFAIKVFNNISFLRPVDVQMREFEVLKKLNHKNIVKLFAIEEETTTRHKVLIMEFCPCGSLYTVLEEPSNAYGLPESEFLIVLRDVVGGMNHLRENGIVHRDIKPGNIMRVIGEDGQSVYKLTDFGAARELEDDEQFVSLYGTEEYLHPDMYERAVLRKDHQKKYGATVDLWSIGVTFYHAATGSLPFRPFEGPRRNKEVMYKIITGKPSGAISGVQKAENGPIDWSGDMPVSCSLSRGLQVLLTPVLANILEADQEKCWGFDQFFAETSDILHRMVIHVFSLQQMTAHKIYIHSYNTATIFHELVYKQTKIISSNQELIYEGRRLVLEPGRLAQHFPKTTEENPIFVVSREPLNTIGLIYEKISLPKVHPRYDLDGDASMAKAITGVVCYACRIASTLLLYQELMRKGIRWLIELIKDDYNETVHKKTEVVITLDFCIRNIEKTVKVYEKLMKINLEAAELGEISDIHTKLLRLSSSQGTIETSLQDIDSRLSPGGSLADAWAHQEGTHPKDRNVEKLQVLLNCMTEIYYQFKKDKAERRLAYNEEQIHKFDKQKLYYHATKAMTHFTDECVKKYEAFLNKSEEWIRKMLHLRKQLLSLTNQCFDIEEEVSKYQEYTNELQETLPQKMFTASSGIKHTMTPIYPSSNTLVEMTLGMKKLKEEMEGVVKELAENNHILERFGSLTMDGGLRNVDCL

| SMILES | IC50 [nM] |
| --- | --- |
| CC(c1ccnc(Nc2nc3ccc(-c4cnn(CC5CC5(F)F)c4)cc3[nH]2)c1)N1CCN(C(=O)OC(C)(C)C)CC1 (single isomer, unassigned) [Example 55.01.02, tert-butyl 4-[(1R or 1S)-1-(2-{[6-(1-{[(1R or 1S)-2,2-difluorocyclopropyl]methyl}-1H-pyrazol-4-yl)-1H-benzimidazol-2-yl]amino}pyridin-4-yl)ethyl]piperazine-1-carboxylate] | 4.8 |
| CC(c1ccnc(Nc2nc3ccc(-c4cnn(CC5CC5(F)F)c4)cc3[nH]2)c1)N1CCN(C(=O)CC(F)(F)F)CC1 (single isomer, unassigned) [Example 55.02, 1-{4-[(1R or 1S)-1-(2-{[6-(1-{[(1RS)-2,2-difluorocyclopropyl]methyl}-1H-pyrazol-4-yl)-1H-benzimidazol-2-yl]amino}pyridin-4-yl)ethyl]piperazin-1-yl}-3,3,3-trifluoropropan-1-one] | 1.06 |
| CC(c1ccnc(Nc2nc3ccc(-c4cnn(CC5CC5(F)F)c4)cc3[nH]2)c1)N1CCN(C(=O)CC(F)(F)F)CC1 (single isomer, unassigned) [Example 55.02.01, 1-{4-[(1R or 1S)-1-(2-{[6-(1-{[(1R or IS)-2,2-difluorocyclopropyl]methyl}-1H-pyrazol-4-yl)-1H-benzimidazol-2-yl]amino}pyridin-4-yl)ethyl]piperazin-1-yl}-3,3,3-trifluoropropan-1-one] | 0.72 |
| CC(c1ccnc(Nc2nc3ccc(-c4cnn(CC5CC5(F)F)c4)cc3[nH]2)c1)N1CCN(C(=O)CC(F)(F)F)CC1 (single isomer, unassigned) [Example 55.02.02, 1-{4-[(1R or 1S)-1-(2-{[6-(1-{[(1R or IS)-2,2-difluorocyclopropyl]methyl}-1H-pyrazol-4-yl)-1H-benzimidazol-2-yl]amino}pyridin-4-yl)ethyl]piperazin-1-yl}-3,3,3-trifluoropropan-1-one] | 1.3 |
| CC(c1ccnc(Nc2nc3ccc(-c4cnn(CC5CC5(F)F)c4)cc3[nH]2)c1)N1CCN(C(=O)C2CC2)CC1 (single isomer, unassigned) [Example 55.03, cyclopropyl{4-[(1R or 1S)-1-(2-{[6-(1-{[(1RS)-2,2-difluorocyclopropyl]methyl}-1H-pyrazol-4-yl)-1H-benzimidazol-2-yl]amino}pyridin-4-yl)ethyl]piperazin-1-yl}methanone] | 0.564 |
| CC(c1ccnc(Nc2nc3ccc(-c4cnn(CC5CC5(F)F)c4)cc3[nH]2)c1)N1CCN(C(=O)C2CC2)CC1 (single isomer, unassigned) [Example 55.03.01, cyclopropyl{4-[(1R or 1S)-1-(2-{[6-(1-{[(1R or 1S)-2,2-difluorocyclopropyl]methyl}-1H-pyrazol-4-yl)-1H-benzimidazol-2-yl]amino}pyridin-4-yl)ethyl]piperazin-1-yl}methanone] | 0.61 |
| CC(c1ccnc(Nc2nc3ccc(-c4cnn(CC5CC5(F)F)c4)cc3[nH]2)c1)N1CCN(C(=O)C2CC2)CC1 (single isomer, unassigned) [Example 55.03.02, cyclopropyl{4-[(1R or 1S)-1-(2-{[6-(1-{[(1R or 1S)-2,2-difluorocyclopropyl]methyl}-1H-pyrazol-4-yl)-1H-benzimidazol-2-yl]amino}pyridin-4-yl)ethyl]piperazin-1-yl}methanone] | 0.66 |
| CC1CC1Cn1cc(-c2ccc3nc(Nc4cc(C(C)N5CCN(C(=O)OC(C)(C)C)CC5)ccn4)[nH]c3c2)cn1 (single isomer, unassigned) [Example 56.01, tert-butyl 4-[(1R or 1S)-1-(2-{[6-(1-{[(1RS,2RS)-2-methylcyclopropyl]methyl}-1H-pyrazol-4-yl)-1H-benzimidazol-2-yl]amino}pyridin-4-yl)ethyl]piperazine-1-carboxylate] | 16.5 |
| CC(c1ccnc(Nc2nc3ccc(-c4cn[nH]c4)cc3[nH]2)c1)N1CCN(C(=O)OC(C)(C)C)CC1 (single isomer, unassigned) [Example 57.01, tert-butyl 4-[(1R or 1S)-1-(2-{[6-(1H-pyrazol-4-yl)-1H-benzimidazol-2-yl]amino}pyridin-4-yl)ethyl]piperazine-1-carboxylate] | 7.83 |
| CC(c1ccnc(Nc2nc3ccc(-c4cnn(CC5CCC5)c4)cc3[nH]2)c1)N1CCN(C(=O)OC(C)(C)C)CC1 (single isomer, unassigned) [Example 59.01.01, tert-butyl 4-{(1R or 1S)-1-[2-({6-[1-(cyclobutylmethyl)-1H-pyrazol-4-yl]-1H-benzimidazol-2-yl}amino)pyridin-4-yl]ethyl}piperazine-1-carboxylate] | 14.2 |
| CC(c1ccnc(Nc2nc3ccc(-c4cnn(CC5CCC5)c4)cc3[nH]2)c1)N1CCN(C(=O)C2CC2)CC1 (single isomer, unassigned) [Example 59.01.03, (4-{(1R or 1S)-1-[2-({6-[1-(cyclobutylmethyl)-1H-pyrazol-4-yl]-1H-benzimidazol-2-yl}amino)pyridin-4-yl]ethyl}piperazin-1-yl)(cyclopropyl)methanone] | 2.59 |
| CC(c1ccnc(Nc2nc3ccc(-c4cnn(CC5CC5(C)C)c4)cc3[nH]2)c1)N1CCN(C(=O)OC(C)(C)C)CC1 (single isomer, unassigned) [Example 67.01, tert-butyl 4-[(1R or 1S)-1-(2-{[6-(1-{[(1RS)-2,2-dimethylcyclopropyl]methyl}-1H-pyrazol-4-yl)-1H-benzimidazol-2-yl]amino}pyridin-4-yl)ethyl]piperazine-1-carboxylate] | 46 |
| CC(c1ccnc(Nc2nc3ccc(-c4cnn(CC5CC5(C)C)c4)cc3[nH]2)c1)N1CCN(C(=O)CC(F)(F)F)CC1 (single isomer, unassigned) [Example 67.02, 1-{4-[(1R or 1S)-1-(2-{[6-(1-{[(1RS)-2,2-dimethylcyclopropyl]methyl}-1H-pyrazol-4-yl)-1H-benzimidazol-2-yl]amino}pyridin-4-yl)ethyl]piperazin-1-yl}-3,3,3-trifluoropropan-1-one] | 2.9 |
| CC(c1ccnc(Nc2nc3ccc(-c4cnn(CC5CC5(C)C)c4)cc3[nH]2)c1)N1CCN(C(=O)C2CC2)CC1 (single isomer, unassigned) [Example 67.03, cyclopropyl{4-[(1R or 1S)-1-(2-{[6-(1-{[(1RS)-2,2-dimethylcyclopropyl]methyl}-1H-pyrazol-4-yl)-1H-benzimidazol-2-yl]amino}pyridin-4-yl)ethyl]piperazin-1-yl}methanone] | 2 |
| CC(c1ccnc(Nc2nc3ccc(-c4cnn(CC5(C)CC5)c4)cc3[nH]2)c1)N1CCN(C(=O)OC(C)(C)C)CC1 (single isomer, unassigned) [Example 68.01, tert-butyl 4-[(1R or 1S)-1-{2-[(6-{1-[(1-methylcyclopropyl)methyl]-1H-pyrazol-4-yl}-1H-benzimidazol-2-yl)amino]pyridin-4-yl}ethyl]piperazine-1-carboxylate] | 26 |
| CC(c1ccnc(Nc2nc3ccc(-c4cnn(CC5(Cl)CC5)c4)cc3[nH]2)c1)N1CCN(C(=O)OC(C)(C)C)CC1 (single isomer, unassigned) [Example 69.01, tert-butyl 4-[(1R or 1S)-1-{2-[(6-{1-[(1-chlorocyclopropyl)methyl]-1H-pyrazol-4-yl}-1H-benzimidazol-2-yl)amino]pyridin-4-yl}ethyl]piperazine-1-carboxylate] | 12 |
| CC(c1ccnc(Nc2nc3ccc(-c4cnn(CC5(Cl)CC5)c4)cc3[nH]2)c1)N1CCN(C(=O)CC(F)(F)F)CC1 (single isomer, unassigned) [Example 69.02, 1-{4-[(1R or 1S)-1-{2-[(6-{1-[(1-chlorocyclopropyl)methyl]-1H-pyrazol-4-yl}-1H-benzimidazol-2-yl)amino]pyridin-4-yl}ethyl]piperazin-1-yl}-3,3,3-trifluoropropan-1-one] | 0.64 |
| CC(c1ccnc(Nc2nc3ccc(-c4cnn(CC5CC5(F)F)c4)c(Cl)c3[nH]2)c1)N1CCN(C(=O)CC(F)(F)F)CC1 (single isomer, unassigned) [Example 70.01, 1-{4-[(1R or 1S)-1-(2-{[7-chloro-6-(1-{[(1RS)-2,2-difluorocyclopropyl]methyl}-1H-pyrazol-4-yl)-1H-benzimidazol-2-yl]amino}pyridin-4-yl)ethyl]piperazin-1-yl}-3,3,3-trifluoropropan-1-one] | 0.88 |
| CC(c1ccnc(Nc2nc3ccc(-c4cnn(CC5CC5(F)F)c4)c(Cl)c3[nH]2)c1)N1CCN(C(=O)C2CC2)CC1 (single isomer, unassigned) [Example 70.02, {4-[(1R or 1S)-1-(2-{[7-chloro-6-(1-{[(1RS)-2,2-difluorocyclopropyl]methyl}-1H-pyrazol-4-yl)-1H-benzimidazol-2-yl]amino}pyridin-4-yl)ethyl]piperazin-1-yl}(cyclopropyl)methanone] | 0.73 |
| CC(c1ccnc(Nc2nc3ccc(-c4cnn(CC5CCCC5)c4)cc3[nH]2)c1)N1CCN(C(=O)OC(C)(C)C)CC1 (single isomer, unassigned) [Example 71.01, tert-butyl 4-{(1R or 1S)-1-[2-({6-[1-(cyclopentylmethyl)-1H-pyrazol-4-yl]-1H-benzimidazol-2-yl}amino)pyridin-4-yl]ethyl}piperazine-1-carboxylate] | 100 |
| CC(c1ccnc(Nc2nc3ccc(-c4ccnn4C(C)C)cc3[nH]2)c1)N1CCN(C(=O)OC(C)(C)C)CC1 (single isomer, unassigned) [Example 72.01, tert-butyl 4-{(1R or 1S)-1-[2-({6-[1-(propan-2-yl)-1H-pyrazol-5-yl]-1H-benzimidazol-2-yl}amino)pyridin-4-yl]ethyl}piperazine-1-carboxylate] | 800 |
| CC(c1ccnc(Nc2nc3ccc(-c4ccnn4C(C)C)cc3[nH]2)c1)N1CCN(C(=O)CC(F)(F)F)CC1 (single isomer, unassigned) [Example 72.02, 3,3,3-trifluoro-1-(4-{(1R or 1S)-1-[2-({6-[1-(propan-2-yl)-1H-pyrazol-5-yl]-1H-benzimidazol-2-yl}amino)pyridin-4-yl]ethyl}piperazin-1-yl)propan-1-one] | 250 |
